Data on 26 compounds can be found in EP2061765B1, “Serine-threonine protein kinase and PARP modulators” (Senhwa Biosciences, Inc., priority 2006, dated 2008).

Common to all, as to assay: Cell proliferation assay (Alamar Blue)
Common to all, as to assay type: cell-based

One experiment deals with MDAMB231. To be noted: Homo sapiens, MDA-MB-231, 96 h, MDAMB231 cells, four days. How it is done:
(§1) A representative cell-proliferation assay protocol using Alamar Blue dye (stored at 4°C, use 20ul per well) is described hereafter. 96-well plate setup and compound treatment • a. Split and trypsinize cells. • b. Count cells using hemocytometer. • c. Plate 4,000-5,000 cells per well in 100 µl of medium and seed into a 96-well plate according to the following plate layout. Add cell culture medium only to wells B10 to B12. Wells B1 to B9 have cells but no compound added. [formula] [formula] • d. Add 100 µl of 2X drug dilution to each well in a concentration shown in the plate layout above. At the same time, add 100 µl of media into the control wells (wells B10 to B12). Total volume is 200 µl/well. • e. Incubate four (4) days at 37°C, 5% CO2 in a humidified incubator. • f. Add 20µl Alamar Blue reagent to each well. • g. Incubate for four (4) hours at 37°C, 5% CO2 in a humidified incubator. • h. Record fluorescence at an excitation wavelength of 544nm and emission wavelength of 590nm using a microplate reader.
(§2) In the assays, cells are cultured with a test compound for approximately four days, the dye then is added to the cells and fluorescence of […] dye is detected after approximately four hours. Different types of cells can be utilized in the assays (e.g., HCT-116 human colorectal carcinoma cells, PC-3 human prostatic cancer cells and MiaPaca human pancreatic carcinoma cells). Anti-proliferative effects of representative compounds are provided hereafter.

The test system of the next experiment is PanC1. The settings on record: Homo sapiens, PANC-1, 96 h, PanC1 cells, four days. The method, then: as §1, §2
The next experiment concerns BxPC3. The settings on record: Homo sapiens, BXPC-3, 96 h, BxPC3 cells, four days. The method, then:
as §1, §2

Turning to `CN(C)CCNc1ncc2c(n1)c(Nc1ccc(F)c(Cl)c1)nc1cc(C(=O)O)ccc12` [drawing 432], the IC50 with MDAMB231 was over 50 µM.
On the same count and under the same terms, the value for `O=C(O)c1ccc2c(c1)nc(Nc1ccc(F)c(Cl)c1)c1nc(NCc3ccccn3)ncc12` [drawing 433] was 33.7 µM.
In the experiment with MDAMB231, `COC(CNc1ncc2c(n1)c(Nc1ccc(F)c(Cl)c1)nc1cc(C(=O)O)ccc12)OC` [drawing 434] came in with a 50% inhibitory concentration (IC50) of 25.4 µM.
On to `NC(=O)c1ccc2c(c1)nc(Nc1cccc(C(F)(F)F)c1)c1nc(NC3CC3)ncc12` [drawing 435], for which, in the experiment on MDAMB231, the IC50 was over 50 µM.
Compound `O=C(NC1CC1)c1ccc2c(c1)nc(Nc1cccc(C(F)(F)F)c1)c1nc(NC3CC3)ncc12` [drawing 436] gave an IC50 in the experiment on MDAMB231 of 39.8 µM.
`CNC(=O)c1ccc2c(c1)nc(Nc1cccc(C(F)(F)F)c1)c1nc(NC3CC3)ncc12` [drawing 437] had an IC50 in the experiment with MDAMB231 of 10.5 µM.
The compound `O=C(O)c1ccc2c(c1)nc(Nc1ccc(F)c(Cl)c1)c1nc(NCc3cccnc3)ncc12` [drawing 438] had an IC50 in the experiment with MDAMB231 of 5.48 µM.
On the same count and under the same terms, the value for `O=C(O)c1ccc2c(c1)nc(Nc1ccc(F)c(Cl)c1)c1nc(NCc3ccncc3)ncc12` [drawing 439] was 12.1 µM.
`O=C(O)c1ccc2c(c1)nc(Nc1ccccc1)c1nc(Nc3ccccc3)ncc12` [drawing 440]: inhibition in the experiment with MDAMB231 was half-maximal at 19.2 µM (IC50).
Turning to `CC(C)OC(=O)Nc1ccc2c(c1)nc(Nc1cccc(C(F)(F)F)c1)c1nc(NC3CC3)ncc12` [drawing 441], the IC50 in the experiment on MDAMB231 stood at 4.27 µM.
`CCOC(=O)CCNC(=O)c1ccc2c(c1)nc(Nc1cccc(C(F)(F)F)c1)c1nc(NC3CC3)ncc12` [drawing 442] showed an IC50 in the experiment on MDAMB231 of 2.52 µM.
Take `O=C(O)c1ccc2c(c1)nc(Nc1ccc(F)c(Cl)c1)c1ncncc12` [drawing 445]: the results for the IC50 with PanC1 and with BxPC3 were 3.37 µM and 3.55 µM, respectively.
`Fc1cccc(Nc2nc3cc(-c4nnn[nH]4)ccc3c3cnccc23)c1` [drawing 453] gave an IC50 with PanC1 of over 50 µM.
`Fc1cc(Nc2nc3cc(-c4nnn[nH]4)ccc3c3cnccc23)ccc1Cl` [drawing 454] yielded an IC50 in the experiment on PanC1 of over 50 µM.
In the experiment on PanC1, `Clc1cccc(Nc2nc3cc(-c4nnn[nH]4)ccc3c3cnccc23)c1` [drawing 458] registered an IC50 of over 50 µM.
With `O=C(O)c1ccc2c(c1)nc(Nc1ccccc1)c1nc(NC3CC3)ncc12` [drawing 461], the half-inhibitory concentration (IC50) in the experiment with PanC1 was 5.02 µM; in the experiment on BxPC3, 2.16 µM.
Taken in the same sequence, the figures for `CCCNc1ncc2c(n1)c(Nc1ccccc1)nc1cc(C(=O)O)ccc12` [drawing 462] were 4.28 µM and 5.83 µM.
Regarding `COCCNc1ncc2c(n1)c(Nc1ccccc1)nc1cc(C(=O)O)ccc12` [drawing 463], the IC50 is 32.6 µM in the experiment with PanC1 and 3.92 µM in the experiment with BxPC3.
Taken in the same sequence, the figures for `O=C(O)c1ccc2c(c1)nc(Nc1ccccc1)c1nc(NCCO)ncc12` [drawing 464] were over 50 µM and 23.5 µM.
Taken in the same sequence, the figures for `O=C(O)c1ccc2c(c1)nc(Nc1ccccc1)c1nc(NCCCO)ncc12` [drawing 465] were 34.2 µM and 9.41 µM.
As to `O=C(O)c1ccc2c(c1)nc(Nc1ccccc1)c1nc(NC3CCNCC3)ncc12` [drawing 466], the IC50 was over 50 µM in the experiment with PanC1 and 8.36 µM with BxPC3.
Taken in the same sequence, the figures for `CCN(CC)CCNc1ncc2c(n1)c(Nc1ccccc1)nc1cc(C(=O)O)ccc12` [drawing 467] were over 50 µM and 10.7 µM.
In the case of `O=C(O)c1ccc2c(c1)nc(Nc1ccccc1)c1nc(NCCN3CCOCC3)ncc12` [drawing 468], the IC50 with PanC1 amounted to 27.4 µM; in the experiment on BxPC3, 4.67 µM.
For the compound `O=C(O)c1ccc2c(c1)nc(Nc1ccccc1)c1nc(NCCCN3CCOCC3)ncc12` [drawing 469], the values for the IC50 in the experiment with PanC1 and in the experiment with BxPC3 were over 50 µM and 1.65 µM, respectively.
As for `C#Cc1cccc(Nc2nc3cc(C(=O)O)ccc3c3cnc(NC4CC4)nc23)c1` [drawing 470], the figures for the IC50 in the experiment with PanC1 and in the experiment on BxPC3 were 5.79 µM and 1.05 µM, respectively.
As for `O=C(O)c1ccc2c(c1)nc(Nc1ccc(F)c(Cl)c1)c1nc(NCc3ccncc3)ncc12` [drawing 511], in the experiment on BxPC3, the IC50 stood at 7.33 µM.
